Source: US20220015372A1, “BIOLOGICALS AND THEIR USE IN PLANTS” (PIONEER HI-BRED INTERNATIONAL, INC., priority 2018, published 2022)

Columns and labels:
[1] = test system: Fall Armyworm (FAW, Spodoptera frugiperda); experiment: Lepidoptera diet-based feeding assay, FAW; format: in vivo; details: serial dilutions of Kings Medium fermentate (depsipeptide 55 ug/ml) in artificial diet
Method: (§1) Lepidopteran feeding assays (including FAW) were conducted on an artificial diet containing fermented broth in a 96 well plate set up. The broth was incorporated with multi-species Lepidopteran artificial diet (Southland Products Inc., Arkansas) in a ratio of 25 μl test sample and 35 μl of diet. Two to five neonate larvae were placed in each well to feed for 4 days. Results were expressed as positive for larvae reactions such as stunting and/or mortality. Results were expressed as negative if the larvae were similar to the negative control that is fed diet to which the above control broth only has been applied.

[2] = test system: Western Corn Rootworm (WCRW, Diabrotica virgifera virgifera); experiment: Coleoptera diet based feeding assay, WCRW; format: in vivo; details: serial dilutions of Kings Medium fermentate (depsipeptide 55 ug/ml) in artificial diet
Method: Western Corn Rootworm (WCRW, Diabrotica virgifera virgifera) bioassays were conducted in a 96 well plate format, mixing 10 μl of test sample with 50 μl molten modified Southern Corn Rootworm diet (Frontier Agricultural Sciences, diet F9800B). WCRW neonates were placed into each well before heat sealed with a Mylar film. Holes are punched in the film to allow air exchange. The assay was run four days at 25° C. in the dark. The plates were then scored for insect mortality and stunting of insect growth. The scores were noted as dead, severely stunted (little or no growth but alive), stunted (growth but not equivalent to controls) or no activity.

[3] = test system: European corn borer (ECB, Ostrinia nubilalis); experiment: Lepidoptera diet-based feeding assay, ECB; format: in vivo; details: serial dilutions of Kings Medium fermentate (depsipeptide 55 ug/ml) in artificial diet
Method: as §1

[4] = test system: corn earworm (Hehcoverpa zea); experiment: Lepidoptera diet-based feeding assay, CEW; format: in vivo, Helicoverpa zea; details: serial dilutions of Kings Medium fermentate (depsipeptide 55 ug/ml) in artificial diet
Method: as §1

[5] = test system: soybean looper (SBL, Pseudoplusia includens); experiment: Lepidoptera diet-based feeding assay, SBL; format: in vivo; details: serial dilutions of Kings Medium fermentate (depsipeptide 55 ug/ml) in artificial diet
Method: as §1

[6] = test system: corn earworm (Helicoverpa zea; CEW); experiment: Medium-sized plant-based assay on bush bean, CEW; format: in vivo; set-up: key to insect live or dead: live=F; dead=K
Method: (§2) Broths A and B were tested against four insect species in medium insect test units; DBM, FAW, beet armyworm (Spodoptera exigua; BAW), and corn earworm (Helicoverpa zea; CEW). Test units were comprised of 70 cm^3 bases with 35 g of Woodstown Sandy Loam soil (Delmar, Del.) and mustard (Brassicae kaber; 6.5-7 cm), corn (Zea mays; 7-8 cm) or Bush bean (Phaseolus vulgaris; 6-7cm) as host plants for DBM, FAW and BAW, and CEW, respectively. Three concentrations of Broths A and B were tested: 0.25, 0.5 and 1×, with and without the surfactant X-77. Spinetoram was included as a positive control. Untreated controls were also included. Test units were sprayed with 1.2 mL of broth, in triplicate, and subsequently infested with approximately 15-20 stage 1 BAW or FAW larvae, or 30-40 neonate DBM or CEW. Units were kept in controlled conditions of 25° C./70% RH/16:8 h (L:D) photoperiod for six days and then scored. There are two scores given for each treatment, (1) plant damage rating from 0-10, with 0 being no damage and 10 being plant was completely consumed, and (2) insect live or dead (live=F; dead=K). The scores are averages of the three technical replicates. Any treatment with a plant damage score of 3 or less and an insect rating of K was considered to be active.

FAW = experiment: Medium-sized plant-based assay on corn, FAW; format: in vivo, Spodoptera frugiperda; set-up: key to insect live or dead: live=F; dead=K
Method: as §2

[7] = test system: beet armyworm (Spodoptera exigua; BAW); experiment: Medium-sized plant-based assay on corn, BAW; format: in vivo; set-up: key to insect live or dead: live=F; dead=K
Method: as §2

[8] = 0.1 ppm, Table 3 assay without X-77, six days
[9] = 0.1 ppm, Table 4 assay with X-77, six days
[10] = 0.2 ppm, Table 3 assay without X-77, six days
[11] = 0.2 ppm, Table 4 assay with X-77, six days
[12] = 2 ppm, Table 3 assay without X-77, six days
[13] = 2 ppm, Table 4 assay with X-77, six days

FR901375 [depsipeptide]
minimal dose to achieve 100% mortality [1]: 2 pmm | minimal dose to achieve 100% mortality [2]: 23 ppm | minimal dose to achieve 100% mortality [3]: 2 ppm | minimal dose to achieve 100% mortality [4]: 11 ppm | minimal dose to achieve 100% mortality [5]: 1 ppm

Spinetoram
insect live or dead [6, 8]: K | plant damage rating from 0-10 [6, 8]: 1 | insect live or dead [6, 9]: K | plant damage rating from 0-10 [6, 9]: 1 | insect live or dead [6, 10]: K | plant damage rating from 0-10 [6, 10]: 1 | insect live or dead [6, 11]: K | plant damage rating from 0-10 [6, 11]: 1 | insect live or dead [6, 12]: K | plant damage rating from 0-10 [6, 12]: 0 | insect live or dead [6, 13]: K | plant damage rating from 0-10 [6, 13]: 0 | insect live or dead (FAW; [8]): F | plant damage rating from 0-10 (FAW; [8]): 5 | insect live or dead (FAW; [9]): F | plant damage rating from 0-10 (FAW; [9]): 5 | insect live or dead (FAW; [10]): K | plant damage rating from 0-10 (FAW; [10]): 1 | insect live or dead (FAW; [11]): K | plant damage rating from 0-10 (FAW; [11]): 1 | insect live or dead (FAW; [12]): K | plant damage rating from 0-10 (FAW; [12]): 0 | insect live or dead (FAW; [13]): K | plant damage rating from 0-10 (FAW; [13]): 0 | insect live or dead [7, 8]: F | plant damage rating from 0-10 [7, 8]: 7 | insect live or dead [7, 9]: F | plant damage rating from 0-10 [7, 9]: 7 | insect live or dead [7, 10]: F | plant damage rating from 0-10 [7, 10]: 4 | insect live or dead [7, 11]: F | plant damage rating from 0-10 [7, 11]: 4 | insect live or dead [7, 12]: K | plant damage rating from 0-10 [7, 12]: 0 | insect live or dead [7, 13]: F | plant damage rating from 0-10 [7, 13]: 4
